# Data: US8748614B2, “Substituted isoquinoline and isoquinolinone derivatives” (Sanofi, priority 2006, dated 2014)
# Counter-ions that a name gives are not always drawn.
# Target: T1, human recombinant ROCK II (Homo sapiens, UniProt O75116)
# T1 construct: recombinant human ROCK-II residues 11-552; His6 (N); purchased Upstate Ltd., Dundee, UK
# Test: Determination of Rho Kinase Inhibition (ROCK II, Caliper peptide phosphorylation assay)
# Assay type: biochemical
# Settings: 60 min incubation at 32° C., respective form (salt or free base) as obtained in the examples
# Experimental: Determination of Rho Kinase Inhibition
# To measure Rho-kinase inhibition, IC50 values were determined according to the following protocol:
# Active human recombinant ROCK II (N-terminal His6-tagged recombinant human ROCK-II residues 11-552) was purchased from Upstate Ltd., Dundee, UK. The peptide substrate, Fluorescein-AKRRRLSSLRA-COOH, was obtained from JPT Peptide Technologies, Berlin, Germany. Adenosine-5′-triphosphate (ATP), bovine serum albumine (BSA), dimethylsulphoxide (DMSO), 4-(2-Hydroxyethyl)piperazine-1-ethanesulfonic acid (Hepes), Brij-35 and dithiothreitol (DTT) were purchased from Sigma-Aldrich, Munich, Germany. Tris(hydroxymethyl)-aminomethane (Tris), magnesium chloride, NaOH, 1M HCl and EDTA were obtained from Merck Biosciences, Darmstadt, Germany. “Complete” protease inhibitor was from Roche Diagnostics, Mannheim, Germany.
# Test compounds were diluted to the appropriate concentrations in buffer 1 (25 mM Tris-HCl, pH 7.4, 5 mM MgCl2, 2 mM DTT, 0.02% (w/v) BSA and 3% DMSO). The ROCK II enzyme was diluted to a concentration of 100 ng/ml in buffer 2 (25 mM Tris-HCl, pH 7.4, 5 mM MgCl2, 2 mM DTT and 0.02% (w/v) BSA). The peptide substrate and ATP were diluted to concentrations of 3 μM and 120 μM, respectively, in the buffer 2. Two μl of the compound solution were mixed with 2 μl of the diluted enzyme in a 384-well small volume microtiter plate (Greiner, Bio-One, Frickenhausen, Germany), and the kinase reaction was initiated by addition of 2 μl of the solution containing peptide substrate and ATP. After 60 min incubation at 32° C., the reaction was stopped by addition of 20 μl of a solution containing 100 mM Hepes-NaOH, pH 7.4, 0.015% (v/v) Brij-35, 45 mM EDTA and 0.227% chip coating reagent 1 (Caliper Lifescience Inc, Hopkinton, Mass.). Phosphorylation of the substrate peptide was then detected on a Caliper 3000 instrument essentially as described by Pommereau et al (J. Biomol. Screening 9(5), 409-416, 2004). Separation conditions were as follows: Pressure −1.3 psi, upstream voltage −1562 V, downstream voltage −500 V, sample sip time 200 ms. Positive controls (buffer 1 instead of compound) and negative controls (buffer 1 instead of compound and buffer 2 instead of ROCK II) were run in parallel on each plate. The following products/compounds were tested in said assay by using the respective form (salt or free base) obtained as in the examples described above and the following activities were measured.
# T1 sequence (O75116 11-552): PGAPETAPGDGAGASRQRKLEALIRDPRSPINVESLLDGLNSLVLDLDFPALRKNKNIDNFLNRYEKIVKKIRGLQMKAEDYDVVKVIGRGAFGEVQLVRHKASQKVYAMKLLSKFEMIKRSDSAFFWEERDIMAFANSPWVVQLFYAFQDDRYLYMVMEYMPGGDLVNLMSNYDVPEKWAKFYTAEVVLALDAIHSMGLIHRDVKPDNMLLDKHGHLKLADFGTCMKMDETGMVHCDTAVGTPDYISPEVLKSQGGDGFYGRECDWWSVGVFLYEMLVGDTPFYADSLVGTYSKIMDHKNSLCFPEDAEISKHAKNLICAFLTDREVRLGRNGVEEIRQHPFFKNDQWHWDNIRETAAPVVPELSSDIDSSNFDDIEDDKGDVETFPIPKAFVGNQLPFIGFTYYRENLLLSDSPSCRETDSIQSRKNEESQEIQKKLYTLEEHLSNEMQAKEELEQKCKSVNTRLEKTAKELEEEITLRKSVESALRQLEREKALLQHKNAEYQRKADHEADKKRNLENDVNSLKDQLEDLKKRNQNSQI
row,Compound,IC50 [µM]
1,"c1cc2cc(N[C@@H]3CCCN(CC4CC4)C3)ccc2cn1 [Example 166, ((R)-1-Cyclopropylmethyl-piperidin-3-yl)-isoquinolin-6-yl-amine]",1 to 10
2,"O=c1[nH]ccc2cc([S+]([O-])C3CCNCC3)c(Cl)cc12 (stereo not shown) [Example 290, 7-Chloro-6-(piperidine-4-sulfinyl)-2H-isoquinolin-1-one hydrochloride]",1 to 10
3,"O=c1[nH]ccc2cc(N[C@H]3CCN(Cc4cc(Cl)cc(Cl)c4)C3)ccc12 [Example 234, 6-[(S)-1-(3,5-Dichloro-benzyl)-pyrrolidin-3-ylamino]-2H-isoquinolin-1-one]",1 to 10
4,"Brc1cc2cnccc2cc1SC1CCCNCC1 (racemic) [Example 271, (Rac)-6-(Azepan-4-ylsulfanyl)-7-bromo-isoquinoline hydrochloride]",≤ 1
5,"O=c1[nH]ccc2cc(S(=O)(=O)C3CCNCC3)c(Cl)cc12 [Example 288, 7-Chloro-6-(piperidine-4-sulfonyl)-2H-isoquinolin-1-one hydrochloride]",≤ 1
6,"CN(c1ccc2cnccc2c1)C1CCN(CCC(F)(F)F)CC1 [Example 99, Isoquinolin-6-yl-methyl-[1-(3,3,3-trifluoro-propyl)-piperidin-4-yl]-amine]",1 to 10
7,"CCCCN1CCC[C@@H](Nc2ccc3c(=O)[nH]ccc3c2)C1 [Example 196, 6-((R)-1-Butyl-piperidin-3-ylamino)-2H-isoquinolin-1-one]",≤ 1
8,"Cn1cc(CN2CC[C@H](Nc3ccc4c(=O)[nH]ccc4c3)C2)cn1 [Example 246, 6-[(S)-1-(1-Methyl-1H-pyrazol-4-ylmethyl)-pyrrolidin-3-ylamino]-2H-isoquinolin-1-one]",1 to 10
9,"Clc1cc2cnccc2cc1SC1CCCNC1 (racemic) [Example 269, (Rac)-7-Chloro-6-(piperidin-3-ylsulfanyl)-isoquinoline hydrochloride]",≤ 1
10,"CC(C)N1CC(Nc2ccc3c(=O)[nH]ccc3c2)C1 [Example 251, 6-(1-Isopropyl-azetidin-3-ylamino)-2H-isoquinolin-1-one]",1 to 10
11,"O=c1[nH]ccc2cc(N[C@H]3CCN(CC4CC4)C3)ccc12 [Example 226, 6-((S)-1-Cyclopropylmethyl-pyrrolidin-3-ylamino)-2H-isoquinolin-1-one]",≤ 1
12,"Clc1cc2cnccc2cc1SCC1CCNCC1 [Example 279, 7-Chloro-6-(piperidin-4-ylmethylsulfanyl)-isoquinoline hydrochloride]",1 to 10
13,"CCCN1CCC[C@@H](Nc2ccc3c(=O)[nH]ccc3c2)C1 [Example 195, 6-((R)-1-Propyl-piperidin-3-ylamino)-2H-isoquinolin-1-one]",1 to 10
14,"O=c1[nH]ccc2cc(N[C@H]3CCN(CC4CCCNC4)C3)ccc12 (stereo partly drawn) [Example 248, 6-((S)-1-Piperidin-3-ylmethyl-pyrrolidin-3-ylamino)-2H-isoquinolin-1-one]",1 to 10
15,"O=c1[nH]ccc2cc(SC3CCNCC3)c(Cl)cc12 [Example 286, 7-Chloro-6-(piperidin-4-ylsulfanyl)-2H-isoquinolin-1-one hydrochloride]",≤ 1
16,"CCCc1cc2cnccc2cc1SC1CCNCC1 [Example 277, 6-(Piperidin-4-ylsulfanyl)-7-propyl-isoquinoline hydrochloride]",≤ 1
17,"CC(C)CCN1CCC[C@@H](Nc2ccc3c(=O)[nH]ccc3c2)C1 [Example 199, 6-[(R)-1-(3-Methyl-butyl)-piperidin-3-ylamino]-2H-isoquinolin-1-one]",≤ 1
18,"c1cc2cc(N[C@@H]3CCCN(CC4CCCCC4)C3)ccc2cn1 [Example 169, ((R)-1-Cyclohexylmethyl-piperidin-3-yl)-isoquinolin-6-yl-amine]",1 to 10
19,"O=c1[nH]ccc2cc(NC3CN(CC4CC4)C3)ccc12 [Example 253, 6-(1-Cyclopropylmethyl-azetidin-3-ylamino)-2H-isoquinolin-1-one]",1 to 10

# The remaining lines, values ahead:
row,IC50 [µM],Compound
1,1 to 10,"O=c1[nH]ccc2cc(N[C@@H]3CCCN(Cc4ccncc4)C3)ccc12 [Example 213, 6-((R)-1-Pyridin-4-ylmethyl-piperidin-3-ylamino)-2H-isoquinolin-1-one]"
2,≤ 1,"O=c1[nH]ccc2cc(NC3CN(Cc4ccccc4Cl)C3)ccc12 [Example 259, 6-[1-(2-Chloro-benzyl)-azetidin-3-ylamino]-2H-isoquinolin-1-one]"
3,≤ 1,"O=c1[nH]ccc2cc(N[C@@H]3CCCN(Cc4ccccc4)C3)ccc12 [Example 207, 6-((R)-1-Benzyl-piperidin-3-ylamino)-2H-isoquinolin-1-one]"
4,1 to 10,"O=c1[nH]ccc2cc(N[C@@H]3CCCN(Cc4ccccn4)C3)ccc12 [Example 215, 6-((R)-1-Pyridin-2-ylmethyl-piperidin-3-ylamino)-2H-isoquinolin-1-one]"
5,≤ 1,"O=c1[nH]ccc2cc(NC3CN(Cc4cccc(Cl)c4F)C3)ccc12 [Example 249, 6-[1-(3-Chloro-2-fluoro-benzyl)-azetidin-3-ylamino]-2H-isoquinolin-1-one]"
6,≤ 1,"O=c1[nH]ccc2cc(N[C@@H]3CCCN(Cc4ccc5ccccc5c4)C3)ccc12 [Example 218, 6-((R)-1-Naphthalen-2-ylmethyl-piperidin-3-ylamino)-2H-isoquinolin-1-one]"
7,≤ 1,"O=c1[nH]ccc2cc(N[C@H]3CCN(Cc4ccc5ccccc5c4)C3)ccc12 [Example 243, 6-((S)-1-Naphthalen-2-ylmethyl-pyrrolidin-3-ylamino)-2H-isoquinolin-1-one]"
8,≤ 1,"O=c1[nH]ccc2cc(N[C@H]3CCN(Cc4cccc(Cl)c4F)C3)ccc12 [Example 220, 6-[(S)-1-(3-Chloro-2-fluoro-benzyl)-pyrrolidin-3-ylamino]-2H-isoquinolin-1-one]"
9,≤ 1,"Cc1ccc(CN2CC[C@H](Nc3ccc4c(=O)[nH]ccc4c3)C2)cc1 [Example 236, 6-[(S)-1-(4-Methyl-benzyl)-pyrrolidin-3-ylamino]-2H-isoquinolin-1-one]"
